Source: PubChem BioAssay AID248 (DTP/NCI, 2004)
Several values for one entry are separate records, joined by “and”; a condition that tells them apart may be missing. Equal values may be shown once. Inconclusive results and toxic doses are left out. Rule as the data show it: active = T/C of 150% or more; inactive = T/C below 125%.

Tested on: L1210 leukemia ip in BDF1 mice, survival T/C
Assay: NCI In Vivo Anticancer Drug Screen. Data for tumor model L1210 Leukemia (intraperitoneal) in B6D2F1 (BDF1) mice
Conditions: higher = longer survival
Procedure, shortened: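 Each compound was tested against a transplantable tumor grown in mice. The endpoint was survival, with treated animals benchmarked against vehicle controls as a simple ratio.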

[1] = endpoint: mean survival time, dose: 50.0 mg/kg/injection, schedule: Q04DX002 (ip), vehicle: saline
[2] = endpoint: mean survival time, dose: 100.0 mg/kg/injection, schedule: Q04DX002 (ip), vehicle: saline
[3] = endpoint: mean survival time, dose: 100.0 mg/kg/injection, schedule: Q01DX001 (ip), vehicle: carboxymethylcellulose (CMC)
[4] = endpoint: mean survival time, dose: 200.0 mg/kg/injection, schedule: Q01DX001 (ip), vehicle: carboxymethylcellulose (CMC)
[5] = endpoint: mean survival time, dose: 400.0 mg/kg/injection, schedule: Q01DX001 (ip), vehicle: carboxymethylcellulose (CMC)
[6] = endpoint: mean survival time, dose: 100.0 mg/kg/injection, schedule: Q04DX002 (ip), vehicle: Klucel (hydroxypropylcellulose) (HPC)
[7] = endpoint: mean survival time, dose: 200.0 mg/kg/injection, schedule: Q04DX002 (ip), vehicle: Klucel (hydroxypropylcellulose) (HPC)
[8] = endpoint: mean survival time, dose: 400.0 mg/kg/injection, schedule: Q04DX002 (ip), vehicle: Klucel (hydroxypropylcellulose) (HPC)
[9] = endpoint: mean survival time, dose: 100.0 mg/kg/injection, schedule: Q01DX009 (ip), vehicle: saline
[10] = endpoint: mean survival time, dose: 200.0 mg/kg/injection, schedule: Q01DX009 (ip), vehicle: saline
[11] = endpoint: mean survival time, dose: 100.0 mg/kg/injection, schedule: Q04DX003 (ip), vehicle: Klucel (hydroxypropylcellulose) (HPC)
[12] = endpoint: mean survival time, dose: 100.0 mg/kg/injection, schedule: Q04DX003 (ip), vehicle: saline with Tween-80
[13] = endpoint: mean survival time, dose: 200.0 mg/kg/injection, schedule: Q04DX003 (ip), vehicle: saline with Tween-80
[14] = endpoint: mean survival time, dose: 400.0 mg/kg/injection, schedule: Q04DX003 (ip), vehicle: saline with Tween-80

Measured: T/C

NC(=S)N/N=C\c1cc2ccccc2c2ccccc12
inactive: endpoint: mean survival time, dose: 50.0 mg/kg/injection, schedule: Q01DX001 (ip), vehicle: saline 95 % of control | endpoint: mean survival time, dose: 100.0 mg/kg/injection, schedule: Q01DX001 (ip), vehicle: saline 95 % of control | endpoint: mean survival time, dose: 200.0 mg/kg/injection, schedule: Q01DX001 (ip), vehicle: saline 95 % of control | endpoint: mean survival time, dose: 400.0 mg/kg/injection, schedule: Q01DX001 (ip), vehicle: saline 98 % of control

CCc1ccccc1Nc1cc(=O)[nH]c(=O)[nH]1
inactive: endpoint: mean survival time, dose: 37.5 mg/kg/injection, schedule: Q01DX001 (ip), vehicle: Klucel (hydroxypropylcellulose) (HPC) 91 % of control | endpoint: mean survival time, dose: 75.0 mg/kg/injection, schedule: Q01DX001 (ip), vehicle: Klucel (hydroxypropylcellulose) (HPC) 87 % of control | endpoint: mean survival time, dose: 150.0 mg/kg/injection, schedule: Q01DX001 (ip), vehicle: Klucel (hydroxypropylcellulose) (HPC) 93 % of control

CCCCCCCN1CCCC(OC(=O)N(C)C)C1 (stereo unspecified)
inactive: endpoint: mean survival time, dose: 25.0 mg/kg/injection, schedule: Q04DX002 (ip), vehicle: saline 110 % of control | [1] 103 % of control | [2] 110 % of control and 89 % of control

Cc1nc(N)cc(=O)[nH]1
inactive: endpoint: mean survival time, dose: 100.0 mg/kg/injection, schedule: Q01DX009 (ip), vehicle: water 112 % of control | endpoint: mean survival time, dose: 100.0 mg/kg/injection, schedule: Q04DX003 (ip), vehicle: water 97 % of control | endpoint: mean survival time, dose: 200.0 mg/kg/injection, schedule: Q01DX009 (ip), vehicle: water 104 % of control | endpoint: mean survival time, dose: 200.0 mg/kg/injection, schedule: Q04DX003 (ip), vehicle: water 97 % of control | endpoint: mean survival time, dose: 400.0 mg/kg/injection, schedule: Q04DX003 (ip), vehicle: water 97 % of control

CCC/C(=N\NC(=O)c1ccccc1O)c1ccccc1
inactive: [3] 105 % of control | endpoint: mean survival time, dose: 100.0 mg/kg/injection, schedule: Q01DX009 (ip), vehicle: carboxymethylcellulose (CMC) 102 % of control and 89 % of control | endpoint: mean survival time, dose: 100.0 mg/kg/injection, schedule: Q04DX002 (ip), vehicle: carboxymethylcellulose (CMC) 95 % of control and 107 % of control | endpoint: mean survival time, dose: 100.0 mg/kg/injection, schedule: Q04DX003 (ip), vehicle: carboxymethylcellulose (CMC) 93 % of control | [4] 100 % of control | endpoint: mean survival time, dose: 200.0 mg/kg/injection, schedule: Q01DX009 (ip), vehicle: carboxymethylcellulose (CMC) 94 % of control and 89 % of control | endpoint: mean survival time, dose: 200.0 mg/kg/injection, schedule: Q04DX002 (ip), vehicle: carboxymethylcellulose (CMC) 98 % of control and 102 % of control | endpoint: mean survival time, dose: 200.0 mg/kg/injection, schedule: Q04DX003 (ip), vehicle: carboxymethylcellulose (CMC) 89 % of control | [5] 100 % of control | endpoint: mean survival time, dose: 400.0 mg/kg/injection, schedule: Q01DX009 (ip), vehicle: carboxymethylcellulose (CMC) 94 % of control and 98 % of control | endpoint: mean survival time, dose: 400.0 mg/kg/injection, schedule: Q04DX002 (ip), vehicle: carboxymethylcellulose (CMC) 98 % of control and 103 % of control | endpoint: mean survival time, dose: 400.0 mg/kg/injection, schedule: Q04DX003 (ip), vehicle: carboxymethylcellulose (CMC) 98 % of control

Cc1nc(N)[nH]c(=O)c1CCCNC(=O)c1ccc(C(=O)CBr)cc1
inactive: endpoint: mean survival time, dose: 50.0 mg/kg/injection, schedule: Q01DX001 (ip), vehicle: Klucel (hydroxypropylcellulose) (HPC) 90 % of control | endpoint: mean survival time, dose: 200.0 mg/kg/injection, schedule: Q01DX001 (ip), vehicle: Klucel (hydroxypropylcellulose) (HPC) 93 % of control

O=C(COc1ccccc1)N(O)c1ccc(/C=C/c2ccccc2)cc1
inactive: [3] 93 % of control | [4] 95 % of control | [5] 88 % of control

CC(=O)OC1CCC2(C)C(=CCC3C2CCC2(C)C(c4cccc(=O)o4)CCC32)C1 (stereo unspecified)
inactive: endpoint: mean survival time, dose: 100.0 mg/kg/injection, schedule: Q01DX001 (sc), vehicle: steriod suspending solution 100 % of control | endpoint: mean survival time, dose: 200.0 mg/kg/injection, schedule: Q01DX001 (sc), vehicle: steriod suspending solution 102 % of control | endpoint: mean survival time, dose: 400.0 mg/kg/injection, schedule: Q01DX001 (sc), vehicle: steriod suspending solution 93 % of control

COc1cc([N+](=O)[O-])ccc1NC(=O)c1cccc([N+](=O)[O-])c1C(=O)O
inactive: [6] 95 % of control | [7] 103 % of control | [8] 100 % of control

CC#CCOCC(O)CCl (stereo unspecified)
inactive: [9] 94 % of control | endpoint: mean survival time, dose: 100.0 mg/kg/injection, schedule: Q04DX003 (ip), vehicle: saline sonified 108 % of control | [10] 91 % of control | endpoint: mean survival time, dose: 200.0 mg/kg/injection, schedule: Q04DX003 (ip), vehicle: saline sonified 103 % of control | endpoint: mean survival time, dose: 400.0 mg/kg/injection, schedule: Q01DX009 (ip), vehicle: saline 105 % of control | endpoint: mean survival time, dose: 400.0 mg/kg/injection, schedule: Q04DX003 (ip), vehicle: saline sonified 117 % of control

O=C(OCc1ccccc1CN1CCCCC1)c1ccc([N+](=O)[O-])cc1Cl
inactive: [6] 98 % of control | [7] 98 % of control | [8] 91 % of control

CC/C(=C/c1ccc(OC)c(OC)c1)[N+](=O)[O-]
inactive: endpoint: mean survival time, dose: 25.0 mg/kg/injection, schedule: Q01DX009 (ip), vehicle: Klucel (hydroxypropylcellulose) (HPC) 98 % of control | endpoint: mean survival time, dose: 50.0 mg/kg/injection, schedule: Q01DX009 (ip), vehicle: Klucel (hydroxypropylcellulose) (HPC) 101 % of control | endpoint: mean survival time, dose: 50.0 mg/kg/injection, schedule: Q04DX003 (ip), vehicle: Klucel (hydroxypropylcellulose) (HPC) 96 % of control | endpoint: mean survival time, dose: 100.0 mg/kg/injection, schedule: Q01DX009 (ip), vehicle: Klucel (hydroxypropylcellulose) (HPC) 91 % of control | [11] 104 % of control

OC1OC2COC(c3ccccc3)OC2C(O)C1O (stereo unspecified)
inactive: endpoint: median survival time, dose: 25.0 mg/kg/injection, schedule: Q01DX009 (ip), vehicle: water 106 % of control | endpoint: median survival time, dose: 50.0 mg/kg/injection, schedule: Q01DX009 (ip), vehicle: water 106 % of control | endpoint: median survival time, dose: 100.0 mg/kg/injection, schedule: Q01DX009 (ip), vehicle: water 97 % of control | endpoint: median survival time, dose: 200.0 mg/kg/injection, schedule: Q01DX009 (ip), vehicle: water 100 % of control | endpoint: median survival time, dose: 400.0 mg/kg/injection, schedule: Q01DX009 (ip), vehicle: water 101 % of control | endpoint: median survival time, dose: 800.0 mg/kg/injection, schedule: Q01DX009 (ip), vehicle: water 96 % of control

CCO/C=C1\SC(=S)N(c2ccccc2C)C1=O
inactive: [11] 98 % of control | [12] 100 % of control | endpoint: mean survival time, dose: 200.0 mg/kg/injection, schedule: Q01DX009 (ip), vehicle: Klucel (hydroxypropylcellulose) (HPC) 91 % of control | endpoint: mean survival time, dose: 200.0 mg/kg/injection, schedule: Q04DX003 (ip), vehicle: Klucel (hydroxypropylcellulose) (HPC) 109 % of control | [13] 100 % of control | endpoint: mean survival time, dose: 400.0 mg/kg/injection, schedule: Q04DX003 (ip), vehicle: Klucel (hydroxypropylcellulose) (HPC) 104 % of control | [14] 91 % of control

OCC1OC(n2cnc3c(NCCNc4ncnc5c4ncn5C4OC(CO)C(O)C4O)ncnc32)C(O)C1O (stereo unspecified)
inactive: [1] 102 % of control | [2] 110 % of control

O=C(NO)c1cccc(C(=O)NO)n1
inactive: endpoint: mean survival time, dose: 237.0 mg/kg/injection, schedule: Q01DX015 (ip), vehicle: water 113 % of control | endpoint: mean survival time, dose: 356.0 mg/kg/injection, schedule: Q01DX015 (ip), vehicle: water 114 % of control | endpoint: mean survival time, dose: 533.0 mg/kg/injection, schedule: Q01DX015 (ip), vehicle: water 104 % of control

COC1OC2COC(c3ccccc3)OC2C(O)C1OC(N)=S (stereo unspecified)
inactive: endpoint: mean survival time, dose: 25.0 mg/kg/injection, schedule: Q04DX002 (ip), vehicle: Klucel (hydroxypropylcellulose) (HPC) 98 % of control | endpoint: mean survival time, dose: 50.0 mg/kg/injection, schedule: Q04DX002 (ip), vehicle: Klucel (hydroxypropylcellulose) (HPC) 98 % of control | [6] 88 % of control | [7] 100 % of control | [8] 96 % of control

ClCc1ccncc1
inactive: [9] 87 % of control | endpoint: mean survival time, dose: 100.0 mg/kg/injection, schedule: Q04DX003 (ip), vehicle: saline 109 % of control | [10] 95 % of control | endpoint: mean survival time, dose: 200.0 mg/kg/injection, schedule: Q04DX003 (ip), vehicle: saline 98 % of control | endpoint: mean survival time, dose: 400.0 mg/kg/injection, schedule: Q04DX003 (ip), vehicle: saline 98 % of control

O=C1c2ccccc2CCC1(Br)C(Br)c1ccccc1 (stereo unspecified)
inactive: endpoint: mean survival time, dose: 100.0 mg/kg/injection, schedule: Q04DX003 (ip), vehicle: acetone 96 % of control | endpoint: mean survival time, dose: 200.0 mg/kg/injection, schedule: Q04DX003 (ip), vehicle: acetone 101 % of control | endpoint: mean survival time, dose: 400.0 mg/kg/injection, schedule: Q04DX003 (ip), vehicle: acetone 92 % of control

CC(=O)Nc1cccc(C(C)=O)c1[N+](=O)[O-]
inactive: [12] 100 % of control | [13] 94 % of control | [14] 100 % of control
